We go through 1 compound from paper PMC3549253, “Effect of repetitive lysine–tryptophan motifs on the bactericidal activity of antimicrobial peptides” (Amino Acids, 2012).

Test [1] deals with S. aureus CCARM 3114. Briefly: microbe, parasite or virus in culture. The test is classed as cell-based, Staphylococcus aureus. The conditions noted are these: drug-resistant strain, 2 × 10^5 CFU/ml, 24 h at 37° C, average of 3–4 independent experiments. An excerpt: (§1) Escherichia coli (KCTC 1682), Salmonella typhimurium (KCTC 1926), Pseudomonas aeruginosa (KCTC 1637), Staphylococcus aureus (KCTC 1621), Bacillus subtilis (KCTC 1918), and Listeria monocytogenes (KCTC 3710) were obtained from the Korean Collection for Type Cultures (KCTC). Drug-resistant E. coli strains (CCARM 1229 and CCARM 1238), S. typhimurium strains (CCARM 8007, CCARM 8009, and CCARM 8013), and S. aureus strains (CCARM 3089, CCARM 3090, CCARM 3108, CCARM 3114, and CCARM 3126) were from the Culture Collection of Antibiotic-Resistant Microbes (CCARM) at Seoul Women’s University, Korea.
(§2) The antibacterial activities of the peptides against Gram-negative, Gram-positive and antibiotic-resistant bacterial strains were evaluated using the microbroth dilution method (Park et al. [2003]). Aliquots of culture medium containing bacterial suspensions in mid-logarithmic phase at a concentration of 2 × 10^5 colony forming units (CFU)/ml were added to each well of a multiwell plate containing peptide solution serially diluted 2× in 10 mM sodium phosphate buffer (pH 7.2) or phosphate-buffered saline (PBS, 1.5 mM KH2PO4, 2.7 mM KCl, 8.1 mM Na2HPO4, 150 mM NaCl, pH 7.2). Growth inhibition was evaluated by measuring the absorbance at 620 nm using a Versa-Max microplate Elisa Reader (Molecular Devices Co., Sunnyvale, CA, USA) after 24 h of incubation at 37° C. […] All MIC measurements were the average of 3–4 independent experiments.

Test [2] relates to S. aureus CCARM 3090. Put plainly: microbe, parasite or virus in culture. The class given is cell-based, Staphylococcus aureus. The following applies: drug-resistant strain, 2 × 10^5 CFU/ml, 24 h at 37° C, average of 3–4 independent experiments.
From the text: as §1, §2

For test [3], the system named is S. aureus CCARM 3108. Briefly: microbe, parasite or virus in culture. The test is classed as cell-based, Staphylococcus aureus. The conditions noted are these: drug-resistant strain, 2 × 10^5 CFU/ml, 24 h at 37° C, average of 3–4 independent experiments.
From the text: as §1, §2

Test [4] concerns S. aureus CCARM 3089. Briefly: microbe, parasite or virus in culture. The class given is cell-based, Staphylococcus aureus. The conditions noted are these: drug-resistant strain, 2 × 10^5 CFU/ml, 24 h at 37° C, average of 3–4 independent experiments.
From the text: as §1, §2

In test [5] the test system is all 16 microbial strains. Put plainly: Mean MIC over all strains and therapeutic index. The following applies: MIC values in PBS from all 16 microbial strains; 400 μM used when no activity at 200 μM. The test is classed as cell-based. The protocol:
(§3) The antibacterial activities of the peptides against Gram-negative, Gram-positive and antibiotic-resistant bacterial strains were evaluated using the microbroth dilution method (Park et al. [2003]). Aliquots of culture medium containing bacterial suspensions in mid-logarithmic phase at a concentration of 2 × 10^5 colony forming units (CFU)/ml were added to each well of a multiwell plate containing peptide solution serially diluted 2× in 10 mM sodium phosphate buffer (pH 7.2) or phosphate-buffered saline (PBS, 1.5 mM KH2PO4, 2.7 mM KCl, 8.1 mM Na2HPO4, 150 mM NaCl, pH 7.2). Growth inhibition was evaluated by measuring the absorbance at 620 nm using a Versa-Max microplate Elisa Reader (Molecular Devices Co., Sunnyvale, CA, USA) after 24 h of incubation at 37° C.

Test [6] has as its system S. aureus CCARM 3126. Briefly: microbe, parasite or virus in culture. The following applies: drug-resistant strain, 2 × 10^5 CFU/ml, 24 h at 37° C, average of 3–4 independent experiments.
From the text: as §1, §3

In test [7] the test system is E. coli CCARM 1238. Briefly: microbe, parasite or virus in culture. The following applies: drug-resistant strain, 2 × 10^5 CFU/ml, 24 h at 37° C, average of 3–4 independent experiments. The class given is cell-based, Escherichia coli.
From the text: as §1, §2

Test [8] has as its system S. typhimurium CCARM 8013. Put plainly: microbe, parasite or virus in culture. The test is classed as cell-based, Salmonella typhimurium. The following applies: drug-resistant strain, 2 × 10^5 CFU/ml, 24 h at 37° C, average of 3–4 independent experiments, read-out: MIC.
From the text: as §1, §2

For test [9], the system named is S. typhimurium CCARM 8007. Put plainly: microbe, parasite or virus in culture. The test is classed as cell-based, Salmonella typhimurium. The following applies: drug-resistant strain, 2 × 10^5 CFU/ml, 24 h at 37° C, average of 3–4 independent experiments, read-out: MIC.
From the text: as §1, §2

Test [10] deals with S. typhimurium CCARM 8009. Put plainly: microbe, parasite or virus in culture. The conditions noted are these: drug-resistant strain, 2 × 10^5 CFU/ml, 24 h at 37° C, average of 3–4 independent experiments, read-out: MIC. The class given is cell-based, Salmonella typhimurium.
From the text: as §1, §2

Setting [11] is: 10 mM sodium phosphate buffer, pH 7.2.
Setting [12] is: PBS, pH 7.2 (number in parentheses).

≈ marks a conversion by molar mass, not a printed value. Like-named read-outs stand apart in the source and are kept apart here.

For the compound `CC[C@H](C)[C@H](NC(=O)CN)C(=O)NCC(=O)N[C@@H](C)C(=O)N[C@H](C(=O)N[C@@H](CC(C)C)C(=O)N[C@@H](CCCCN)C(=O)N[C@H](C(=O)N[C@@H](CC(C)C)C(=O)N[C@H](C(=O)N[C@H](C(=O)NCC(=O)N[C@@H](CC(C)C)C(=O)N1CCC[C@H]1C(=O)N[C@@H](C)C(=O)N[C@@H](CC(C)C)C(=O)N[C@H](C(=O)N[C@@H](CO)C(=O)N[C@@H](Cc1c[nH]c2ccccc12)C(=O)N[C@H](C(=O)N[C@@H](CCCCN)C(=O)N[C@@H](CCCNC(=N)N)C(=O)N[C@@H](CCCCN)C(=O)N[C@@H](CCCNC(=N)N)C(=O)N[C@@H](CCC(N)=O)C(=O)N[C@@H](CCC(N)=O)C(N)=O)[C@@H](C)CC)[C@@H](C)CC)[C@@H](C)O)[C@@H](C)O)C(C)C)C(C)C` [Melittin, reference compound], the MIC is listed as 3.12 (3.12) μM in test [1] (setting [11]); 3.12 (3.12) μM in test [1] (setting [12]); 3.12 (3.12) μM in test [2] (setting [11]); 3.12 (3.12) μM in test [2] (setting [12]); 1.56 (1.56) μM in test [3] (setting [11]); 1.56 (1.56) μM in test [3] (setting [12]). For the same compound, the MIC in test [4] (setting [11]), in test [4] (setting [12]), in [6] (setting [11]), in test [6] (setting [12]), in [7] (setting [11]) and in test [7] (setting [12]) was 1.56 (1.56) μM each time. Besides, the MIC worked out at 3.12 µM (≈ 8.88 µg/mL) in test [8] (setting [11]); 6.25 µM (≈ 17.8 µg/mL) in test [8] (setting [12]); 6.25 µM (≈ 17.8 µg/mL) in [9] (setting [11]); 12.5 µM (≈ 35.6 µg/mL) in test [9] (setting [12]); 6.25 µM (≈ 17.8 µg/mL) in test [10] (setting [11]); 12.5 µM (≈ 35.6 µg/mL) in test [10] (setting [12]). Besides, the “GM (geometric mean of MIC values)” value in [5] came to 3.6 µM.
